Experimental data as given in patent US12338220B2, “Antiviral pyrazolopiridinone compounds” (Novartis AG, priority 2019, dated 2025).
Where two headings read alike, the source gives them in different places.

Columns and labels:
CMV-polymerase = CMV-polymerase (Human cytomegalovirus (strain AD169) (HHV-5) (Human herpesvirus 5), UniProt P08546); test: biochemical
CMV = test: microbe, parasite or virus in culture; type: cell-based; details: Human betaherpesvirus 5, 72 h, read-out: CMV-Luc Cellular EC50, NN-NHDF cells, MOI 1, 72 hrs
[1] = CMV-polymerase Biochemical IC50
[2] = read-out: CMV-polymerase Biochemical IC50

## CC(C)(CO)S(=O)(=O)C1(CN2CCc3c(C(=O)NCc4ccc(C#N)cc4)n[nH]c3C2=O)CC1 [Example 49, N-(4-Cyanobenzyl)-6-((1-((1-hydroxy-2-methylpropan-2-yl)sulfonyl)cyclopropyl)methyl)-7-oxo-4,5,6,7-tetrahydro-1H-pyrazolo[3,4-c]pyridine-3-carboxamide]
CMV-polymerase; [1]
  IC50: 4 nM
CMV
  EC50: 58 nM

## Cn1nc(C(=O)NCc2ccc(Cl)cc2)c2c1C(=O)N(CC1(S(=O)(=O)C(C)(C)CO)CC1)CC2 [Example 50, N-(4-Chlorobenzyl)-6-((1-((1-hydroxy-2-methylpropan-2-yl)sulfonyl)cyclopropyl)methyl)-1-methyl-7-oxo-4,5,6,7-tetrahydro-1H-pyrazolo[3,4-c]pyridine-3-carboxamide]
CMV-polymerase; [1]
  IC50: 1 nM
CMV
  EC50: 20 nM

## Cn1nc(C(=O)NCc2ccc(Cl)nc2)c2c1C(=O)N(CC1(S(=O)(=O)C(C)(C)CO)CC1)CC2 [Example 51, N-((6-Chloropyridin-3-yl)methyl)-6-((1-((1-hydroxy-2-methylpropan-2-yl)sulfonyl)cyclopropyl)methyl)-1-methyl-7-oxo-4,5,6,7-tetrahydro-1H-pyrazolo[3,4-c]pyridine-3-carboxamide]
CMV-polymerase; [2]
  IC50: 6 nM
CMV
  EC50: 172 nM

## Cn1nc(C(=O)NCc2ccc(C#N)cc2)c2c1C(=O)N(CC1(S(=O)(=O)C(C)(C)CO)CC1)CC2 [Example 52, N-(4-Cyanobenzyl)-6-((1-((1-hydroxy-2-methylpropan-2-yl)sulfonyl)cyclopropyl)methyl)-1-methyl-7-oxo-4,5,6,7-tetrahydro-1H-pyrazolo[3,4-c]pyridine-3-carboxamide]
CMV-polymerase; [2]
  IC50: 1 nM
CMV
  EC50: 19 nM

## Cn1nc(C(=O)NCc2ccc(F)cc2)c2c1C(=O)N(CC1(S(=O)(=O)C(C)(C)CO)CC1)CC2 [Example 53, N-(4-Fluorobenzyl)-6-((1-((1-hydroxy-2-methylpropan-2-yl)sulfonyl)cyclopropyl)methyl)-1-methyl-7-oxo-4,5,6,7-tetrahydro-1H-pyrazolo[3,4-c]pyridine-3-carboxamide]
CMV-polymerase; [2]
  IC50: 7 nM
CMV
  EC50: 141 nM

## C[C@H](NC(=O)c1nn(C)c2c1CCN(CC1(S(=O)(=O)C(C)(C)CO)CC1)C2=O)c1ccc(C#N)cc1 [Example 54, (S)-N-(1-(4-Cyanophenyl)ethyl)-6-((1-((1-hydroxy-2-methylpropan-2-yl)sulfonyl)cyclopropyl)methyl)-1-methyl-7-oxo-4,5,6,7-tetrahydro-1H-pyrazolo[3,4-c]pyridine-3-carboxamide]
CMV-polymerase; [2]
  IC50: 2 nM
CMV
  EC50: 53 nM

## C[C@@H](NC(=O)c1nn(C)c2c1CCN(CC1(S(=O)(=O)C(C)(C)CO)CC1)C2=O)c1ccc(C#N)cc1 [Example 55, (R)-N-(1-(4-Cyanophenyl)ethyl)-6-((1-((1-hydroxy-2-methylpropan-2-yl)sulfonyl)cyclopropyl)methyl)-1-methyl-7-oxo-4,5,6,7-tetrahydro-1H-pyrazolo[3,4-c]pyridine-3-carboxamide]
CMV-polymerase; [2]
  IC50: 601 nM
CMV
  EC50: > 10000 nM

## Cn1nc(C(=O)NCc2ccc(C#N)cc2)c2c1C(=O)N(CC1(S(=O)(=O)C(C)(C)COC(F)F)CC1)CC2 [Example 58, N-(4-Cyanobenzyl)-6-((1-((1-(difluoromethoxy)-2-methylpropan-2-yl)sulfonyl)cyclopropyl)methyl)-1-methyl-7-oxo-4,5,6,7-tetrahydro-1H-pyrazolo[3,4-c]pyridine-3-carboxamide]
CMV-polymerase; [2]
  IC50: 1 nM
CMV
  EC50: 25 nM

## Cn1nc(C(=O)NCc2ccc(C#N)cc2)c2c1C(=O)N(CC1(S(=O)(=O)C(C)(C)C#N)CC1)CC2 [Example 59, N-(4-Cyanobenzyl)-6-((1-((2-cyanopropan-2-yl)sulfonyl)cyclopropyl)methyl)-1-methyl-7-oxo-4,5,6,7-tetrahydro-1H-pyrazolo[3,4-c]pyridine-3-carboxamide]
CMV-polymerase; [1]
  IC50: 1 nM
CMV
  EC50: 33 nM

## Cn1nc(C(=O)NCc2ccc(C#N)cc2)c2c1C(=O)N(CC1(S(=O)(=O)C(C)(C)CN3CC(F)C3)CC1)CC2 [Example 60, N-(4-Cyanobenzyl)-6-((1-((1-(3-fluoroazetidin-1-yl)-2-methylpropan-2-yl)sulfonyl)cyclopropyl)methyl)-1-methyl-7-oxo-4,5,6,7-tetrahydro-1H-pyrazolo[3,4-c]pyridine-3-carboxamide]
CMV-polymerase; [1]
  IC50: 2 nM
CMV
  EC50: 62 nM

## Cn1nc(C(=O)NCc2ccc(C#N)cc2)c2c1C(=O)N(CC1(S(=O)(=O)C(C)(C)CN3CCOCC3)CC1)CC2 [Example 61, N-(4-Cyanobenzyl)-1-methyl-6-((1-((2-methyl-1-morpholinopropan-2-yl)sulfonyl)cyclopropyl)methyl)-7-oxo-4,5,6,7-tetrahydro-1H-pyrazolo[3,4-c]pyridine-3-carboxamide]
CMV-polymerase; [2]
  IC50: 6 nM
CMV
  EC50: 145 nM

## CO[C@@H]1CCN(CC(C)(C)S(=O)(=O)C2(CN3CCc4c(C(=O)NCc5ccc(C#N)cc5)nn(C)c4C3=O)CC2)C1 [Example 62, (R)-N-(4-cyanobenzyl)-6-((1-((1-(3-methoxypyrrolidin-1-yl)-2-methylpropan-2-yl)sulfonyl)cyclopropyl)methyl)-1-methyl-7-oxo-4,5,6,7-tetrahydro-1H-pyrazolo[3,4-c]pyridine-3-carboxamide]
CMV-polymerase; [2]
  IC50: 4 nM
CMV
  EC50: 136 nM

## Cn1nc(C(=O)NCc2ccc(C#N)cc2)c2c1C(=O)N(CC1(S(=O)(=O)C(C)(C)CN3CC4CC(C3)O4)CC1)CC2 [Example 63, 6-((1-((1-(6-Oxa-3-azabicyclo[3.1.1]heptan-3-yl)-2-methylpropan-2-yl)sulfonyl)cyclopropyl)methyl)-N-(4-cyanobenzyl)-1-methyl-7-oxo-4,5,6,7-tetrahydro-1H-pyrazolo[3,4-c]pyridine-3-carboxamide]
CMV-polymerase; [2]
  IC50: 6 nM
CMV
  EC50: 220 nM

## Cn1nc(C(=O)NCc2ccc(C#N)cc2)c2c1C(=O)N(CC1(S(=O)(=O)C(C)(C)CN3CC4CC3CO4)CC1)CC2 (stereo not shown) [Example 64, 6-((1-((1-(2-Oxa-5-azabicyclo[2.2.1]heptan-5-yl)-2-methylpropan-2-yl)sulfonyl)cyclopropyl)methyl)-N-(4-cyanobenzyl)-1-methyl-7-oxo-4,5,6,7-tetrahydro-1H-pyrazolo[3,4-c]pyridine-3-carboxamide]
CMV-polymerase; [2]
  IC50: 4 nM
CMV
  EC50: 106 nM

## Cn1nc(C(=O)NCc2ccc(C#N)cc2)c2c1C(=O)N(CC1(S(=O)(=O)C(C)(C)CN3CC(O)C3)CC1)CC2 [Example 65, N-(4-Cyanobenzyl)-6-((1-((1-(3-hydroxyazetidin-1-yl)-2-methylpropan-2-yl)sulfonyl)cyclopropyl)methyl)-1-methyl-7-oxo-4,5,6,7-tetrahydro-1H-pyrazolo[3,4-c]pyridine-3-carboxamide]
CMV-polymerase; [2]
  IC50: 2 nM
CMV
  EC50: 50 nM

## COC1CN(CC(C)(C)S(=O)(=O)C2(CN3CCc4c(C(=O)NCc5ccc(C#N)cc5)nn(C)c4C3=O)CC2)C1 [Example 66, N-(4-Cyanobenzyl)-6-((1-((1-(3-methoxyazetidin-1-yl)-2-methylpropan-2-yl)sulfonyl)cyclopropyl)methyl)-1-methyl-7-oxo-4,5,6,7-tetrahydro-1H-pyrazolo[3,4-c]pyridine-3-carboxamide]
CMV-polymerase; [2]
  IC50: 2 nM
CMV
  EC50: 88 nM

## Cn1nc(C(=O)NCc2ccc(C#N)cc2)c2c1C(=O)N(CC1(S(=O)(=O)C(C)(C)CN3CC4(COC4)C3)CC1)CC2 [Example 67, N-(4-Cyanobenzyl)-1-methyl-6-((1-((2-methyl-1-(2-oxa-6-azaspiro[3.3]heptan-6-yl)propan-2-yl)sulfonyl)cyclopropyl)methyl)-7-oxo-4,5,6,7-tetrahydro-1H-pyrazolo[3,4-c]pyridine-3-carboxamide]
CMV-polymerase; [2]
  IC50: 2 nM
CMV
  EC50: 82 nM

## Cn1nc(C(=O)NCc2ccc(C#N)cc2)c2c1C(=O)N(CC1(S(=O)(=O)C(C)(C)CN3CCC(O)C3)CC1)CC2 (stereo not shown) [Example 68, N-(4-Cyanobenzyl)-6-((1-((1-(3-hydroxypyrrolidin-1-yl)-2-methylpropan-2-yl)sulfonyl)cyclopropyl)methyl)-1-methyl-7-oxo-4,5,6,7-tetrahydro-1H-pyrazolo[3,4-c]pyridine-3-carboxamide]
CMV-polymerase; [2]
  IC50: 1 nM
CMV
  EC50: 115 nM

## Cn1nc(C(=O)NCc2ccc(C#N)cc2)c2c1C(=O)N(CC1(S(=O)(=O)C(C)(C)CNCCO)CC1)CC2 [Example 69, N-(4-Cyanobenzyl)-6-((1-((1-((2-hydroxyethyl)amino)-2-methylpropan-2-yl)sulfonyl)cyclopropyl)methyl)-1-methyl-7-ox0-4,5,6,7-tetrahydro-1H-pyrazolo[3,4-c]pyridine-3-carboxamide]
CMV-polymerase; [2]
  IC50: 1 nM
CMV
  EC50: 57 nM

## Cn1nc(C(=O)NCc2ccc(C#N)cc2)c2c1C(=O)N(CC1(S(=O)(=O)C(C)(C)CN)CC1)CC2 [Example 70, 6-((1-((1-Amino-2-methylpropan-2-yl)sulfonyl)cyclopropyl)methyl)-N-(4-cyanobenzyl)-1-methyl-7-oxo-4,5,6,7-tetrahydro-1H-pyrazolo[3,4-c]pyridine-3-carboxamide]
CMV-polymerase; [1]
  IC50: 3 nM
CMV
  EC50: 61 nM

## COC(=O)NCC(C)(C)S(=O)(=O)C1(CN2CCc3c(C(=O)NCc4ccc(C#N)cc4)nn(C)c3C2=O)CC1 [Example 73, Methyl (2-((1-((3-((4-cyanobenzyl)carbamoyl)-1-methyl-7-oxo-1,4,5,7-tetrahydro-6H-pyrazolo[3,4-c]pyridin-6-yl)methyl)cyclopropyl)sulfonyl)-2-methylpropyl)carbamate]
CMV-polymerase; [2]
  IC50: 2 nM
CMV
  EC50: 53 nM

## Cn1nc(C(=O)NCc2ccc(C#N)cc2)c2c1C(=O)N(CC1(S(=O)(=O)C(C)(C)CNC(=O)CN)CC1)CC2 [Example 74, 6-((1-((1-(2-Aminoacetamido)-2-methylpropan-2-yl)sulfonyl)cyclopropyl)methyl)-N-(4-cyanobenzyl)-1-methyl-7-oxo-4,5,6,7-tetrahydro-1H-pyrazolo[3,4-c]pyridine-3-carboxamide]
CMV-polymerase; [2]
  IC50: 3 nM
CMV
  EC50: 148 nM

## C[C@@H](N)C(=O)NCC(C)(C)S(=O)(=O)C1(CN2CCc3c(C(=O)NCc4ccc(C#N)cc4)nn(C)c3C2=O)CC1 [Example 75, (R)-6-((1-((1-(2-Aminopropanamido)-2-methylpropan-2-yl)sulfonyl)cyclopropyl)methyl)-N-(4-cyanobenzyl)-1-methyl-7-oxo-4,5,6,7-tetrahydro-1H-pyrazolo[3,4-c]pyridine-3-carboxamide]
CMV-polymerase; [2]
  IC50: 7 nM
CMV
  EC50: 47 nM
